{"source": "patent US6673372B1", "about": "“Crystalline Efavirenz” (Bristol-Myers Squibb Pharma Company, priority 1998, dated 2004)", "assay": "Relative stability of the crystalline forms of Efavirenz", "type": "physicochemical", "description": "Five Forms designated as Form 1, Form 2, Form 3, form 4, Form 5 have been identified. Each Form is distinguishable from the other forms by x-ray powder diffraction (XRD) and differential scanning calorimetry (DSC). Each form can be isolated in substantially pure form under the conditions described. Further, the forms may be interconverted by procedures taught herein.\nIt has a melting point of about 138° C. to about 140° C., which is the highest of the four forms. Due to its increased stability, it is commonly used for drug formulation. All other forms may be converted into Form 1 during drying at about 60° C. to about 110° C. Conversion and drying is preferably done in a dryer oven at about 70° C. to about 110° C. under reduced pressure. More preferred is about 75° C. to about 85° C. Form 5 is converted to Form 1 by heating to 95° C under reduced pressure. Forms 2 and 3 may also be converted into Form 1 using a hydrocarbon slurry at about 65° C. to about 75° C. Heptane is the most preferred hydrocarbon for this conversion. Form 4, however, may not convert to Form 1 under these conditions because it is soluble at about 70° C. Form 1 may be directly crystallized from heptane when the saturated solution is seeded at about 60° C. to about 75° C. and held at about this temperature until Form 1 starts crystallizing.\nThe thermal properties of Efavirenz were characterized with differential scanning calorimetry using a TA Instruments DSC 910, with data analysis via a TA Instruments Thermal Analyzer 2100. Samples were placed in sealed aluminum pans for analysis with an empty aluminum pan serving as the reference. Heating rates of 5° C. per minute or 10° C. per minute were employed over a temperature range of 25° C. to 200° C. The instrument was calibrated with a indium standard.", "data": [{"smiles": "O=C1Nc2ccc(Cl)cc2[C@@](C#CC2CC2)(C(F)(F)F)O1", "note": "[Form 1, (S)-6-chloro-4-cyclopropylethynyl-4-trifluoromethyl-1,4-dihydro-2H-3,1-benzoxazin-2-one]", "values": [{"measurement": "thermodynamic stability among the crystalline forms", "setting": "solid forms compared, highest melting point", "result": "most thermodynamically stable form"}]}, {"smiles": "O=C1Nc2ccc(Cl)cc2[C@@](C#CC2CC2)(C(F)(F)F)O1", "note": "[Form 2, (S)-6-chloro-4-cyclopropylethynyl-4-trifluoromethyl-1,4-dihydro-2H-3,1-benzoxazin-2-one]", "values": [{"measurement": "stability", "setting": "inferred from the melting point observed by differential scanning calorimetry", "result": "exceptional stability"}]}, {"smiles": "O=C1Nc2ccc(Cl)cc2[C@@](C#CC2CC2)(C(F)(F)F)O1", "note": "[Form 3, (S)-6-chloro-4-cyclopropylethynyl-4-trifluoromethyl-1,4-dihydro-2H-3,1-benzoxazin-2-one]", "values": [{"measurement": "stability of the form in solution slurries", "setting": "solution slurries of Efavirenz at room temperature", "result": "most stable form"}]}, {"smiles": "O=C1Nc2ccc(Cl)cc2[C@@](C#CC2CC2)(C(F)(F)F)O1", "note": "[Form 5, (S)-6-chloro-4-cyclopropylethynyl-4-trifluoromethyl-1,4-dihydro-2H-3,1-benzoxazin-2-one]", "values": [{"measurement": "thermodynamic stability among the crystalline forms", "setting": "below 40° C.", "result": "most thermodynamically stable crystalline form"}]}]}
